Entries after “also recorded” stand apart in the source; their conditions may differ. Read-outs that look alike come from different tables or passages of the source.
Experiments:
[1] = biological target: T1, T-ag oligomerization on 64-bp oligonucleotide containing the SV40 core origin (Simian virus 40, UniProt P03070); type: biochemical; conditions: for Effect on T-ag oligomerization: peptide final concentration 0.5 mM
T1 construct: made in house
Description: (§1) Electrophoretic mobility shift assays (EMSA). Double stranded oligonucleotides, ^32P labeled at 5′ termini, were prepared using standard procedures (Sambrook, J., et al., 1989, Cold Spring Harbor Laboratory, Cold Spring Harbor, N.Y.; Sreekumar, K. A., et al., 2000, p. 49-67; In, L. Raptis (ed.), Methods in Molecular Biology; SV40 Protocols; Humana Press; Totowa, N.J.). EMSA rections were conducted using conditions for SV40 in vitro replication (Wobbe, C. R., et al., 1985, Proc. Natl. Acad. Sci. USA 82:5710-571 4). The reactions (20 μl) contained 7 mM MgCl2, 0.5 mM DTT, 4 mM AMP-PNP, 40 mM creatine phosphate (pH 7.6), 0.48 μg of creatine phosphate kinase, 5 μg of bovine serum albumin, 0.8 μg of Hae III-digested pBR322 ([…]; used as a nonspecific competitor), about 25 fmol of double stranded oligonucleotide, T-ag and the indicated amounts of peptide. After a 20-min incubation at 37° C., glutaraldehyde (0.1 % final concentration) was added and the reaction products were further incubated for 5 min. The reactions were stopped by the addition of 5 μl of 6× loading dye II (15% Ficoll, 0.25% bromophenol blue, and 0.25% xylene cyanol; Sambrook, J., et al., 1989, Cold Spring Harbor Laboratory, Cold Spring Harbor, N.Y.) to the reaction mixtures. Samples containing T-ag were applied to 3.5 to 12% gradient polyacrylamide gels and electrophoresed in 0.5% Tris-borate-EDTA (TBE) pH 8.4 for about 1.5 h (10 watts).

[2] = test system: double stranded oligonucleotide containing the SV40 core origin (SEQ ID NO: 24); assay: Nitrocellulose filter binding of peptide to DNA; conditions: for Binding to DNA in filter binding assay, mutant set: 20 nmoles peptide (1 mM final concentration); for Binding to DNA in filter binding assay, E1 peptides: peptide 0.25 mM and 0.5 mM
Description: Nitrocellulose filter binding reactions. Assay for the ability of NLS based peptides to bind to DNA were performed using published methods (Sreekumar, K. A., et al., 2000, In, L. Raptis (ed.), Methods in Molecular Biology: SV40 Protocols; Humana Press, Totowa, N.J. p. 49-67). Reactions (20 μl) contained 7 mM MgCl2, 0.5 mM DTT, 4 mM AMP-PNP, 40 mM creatine phosphate (di-Tris salt pH7.7), 0.48 μg of creatine phosphokinase, 0.2 mg of bovine serum albumin per ml, 0.8 μg of Hae III-digested pBR322 DNA, about 25 fmol of a given oligonucleotide (about 10^6 cpm/pmol) and the indicated peptide. After incubation for 20 min at 37° C., the mixtures were filtered under suction through alkali-treated nitrocellulose filters (Millipore type HAWP; pore size, 0.4 μm; stored in 100 mM Tris-HCl, pH7.5). The filters were then washed with 5 ml of 100 mM Tris-HCl, pH 7.5, and were dried and counted in a Beckman LS 3801 scintillation counter.

[3] = test system: 64 bp SV40 core origin (SEQ ID NO: 24); assay: Peptide band shift (EMSA without T-ag), core origin; type: binding; conditions: SV40 core origin
Description: as §1
[…] Moreover, the samples were loaded on 8% polyacryamide gels and electrophoresed in 0.5% TBE pH 8.4 for about 3h (about 200 volts). The gels were dried on Whatman 3 MM paper, subjected to autoradiography and quantitated using a Molecular Dynamics PhosphorImager (Sunnyvale, Calif.).

[4] = test system: 64 bp enhancer control (SEQ ID NO: 29); assay: Peptide band shift (EMSA without T-ag), control oligonucleotide; type: binding; conditions: 64 bp enhancer control oligonucleotide; listed as peptide T124A13
Description: as §1
Peptide based band shift reactions were identical to those described above except that T-ag was omitted from the reactions and the final glutaraldehyde concentration was reduced to 0.05 %. Moreover, the samples were loaded on 8% polyacryamide gels and electrophoresed in 0.5% TBE pH 8.4 for about 3h (about 200 volts). The gels were dried on Whatman 3 MM paper, subjected to autoradiography and quantitated using a Molecular Dynamics PhosphorImager (Sunnyvale, Calif.).

T-ag helicase ATPase = biological target: T2, T-ag helicase ATPase (Simian virus 40, UniProt P03070); type: biochemical, SV40; conditions: duplicate lanes, FIG. 13
T2 construct: made in house
Description: A method for measuring ATP hydrolysis involves incubating T-ag with a ^32P-labeled ATP, cross-linking with gluteraldehyde, removing unincorporated nucleotides by passing the reaction products over a Bio-Spin P-30 column, drying the eluate in a Speedvac, resuspending the samples in formic acid, and performing thin layer chromatography on PEI (polyethyleneimine) plates. Using autoradiography, the amount of ATP, ADP and AMP associated with T-ag was determined.

[5] = test system: SV40 DNA replication in HeLa human cell crude extracts; assay: SV40 in vitro replication reaction; type: biochemical; conditions: 30 μl reactions, with T-ag
Description: DNA replication reactions. SV40 in vitro replication reactions were conducted as described by Wobbe et al 1985, Proc. Natl. Acad. Sci. USA 82:5710-5714 (see also, Bullock, P. A., et al., 1998, p. 223-243. In S. Cotterill (ed.), Eukaryotic DNA Replication; A practical Approach, Oxford University Press, Oxford). Reaction mixtures (30 μl) contained 7 mM MgCl2, 0.5 mM DTT, 4 mM ATP, 40 mM creatine phosphate (di-Tris salt pH7.7), 1.4 μg of creatine phosphokinase, 12.5 μg/ml pSV01ΔEP, dATP, dGTP, and dTTP (100 μM each), CTP, GTP, and UTP (200 μM each), [α-^32p] dCTP (20 μM, about 5 cpm/fmol) and the indicated peptides.

[6] = high peptide concentrations (1 mM and 2 mM)
[7] = T-ag 6 pmol, 64-bp SV40 core origin, peptide concentration not given
[8] = 13-mer set at 1 mM final concentration (20 nmoles)
[9] = peptide final concentration 1 mM (20 nmoles), T-ag 6 pmol
[10] = peptide 0.5 mM to 2 mM, replication conditions, pBR322 competitor

T1 sequence (P03070 whole entry): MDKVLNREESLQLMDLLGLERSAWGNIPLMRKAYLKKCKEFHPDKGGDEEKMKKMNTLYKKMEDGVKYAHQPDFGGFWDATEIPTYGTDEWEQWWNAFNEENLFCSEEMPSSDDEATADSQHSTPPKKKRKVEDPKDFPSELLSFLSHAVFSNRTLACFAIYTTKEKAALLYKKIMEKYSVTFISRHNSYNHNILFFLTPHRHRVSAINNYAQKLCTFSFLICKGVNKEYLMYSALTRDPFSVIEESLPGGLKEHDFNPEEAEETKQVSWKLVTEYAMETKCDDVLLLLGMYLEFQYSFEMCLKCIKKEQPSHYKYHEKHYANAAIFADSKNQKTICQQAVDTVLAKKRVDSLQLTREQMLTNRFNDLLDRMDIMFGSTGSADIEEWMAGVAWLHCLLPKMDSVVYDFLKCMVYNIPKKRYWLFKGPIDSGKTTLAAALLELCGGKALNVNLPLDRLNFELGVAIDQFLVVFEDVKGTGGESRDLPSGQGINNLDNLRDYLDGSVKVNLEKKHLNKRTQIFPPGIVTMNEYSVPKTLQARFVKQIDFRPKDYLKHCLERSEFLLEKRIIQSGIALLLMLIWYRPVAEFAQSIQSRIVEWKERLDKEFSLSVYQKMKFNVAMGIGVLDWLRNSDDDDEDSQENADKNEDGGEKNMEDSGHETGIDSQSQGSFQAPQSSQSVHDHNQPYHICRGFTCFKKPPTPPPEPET
T2 sequence (P03070 whole entry): as above

“PPKKKRKVTATADSQHS [peptide 417, rearranged control 17-mer]” was tested, and the “Effect on T-ag oligomerization” value ([1]; T-ag 6 pmol) was “did not inhibit”, the “Effect on T-ag oligomerization” value ([1]; T-ag 6 pmol, listed as peptide T-417) was “did not” and the “Binding to DNA in filter binding assay” value [2, 6] was “observed to bind to DNA”. The “Binding to DNA in filter binding assay” value ([2]; high peptide concentrations (1 mM and 2 mM), listed as peptide T-417) was “observed to bind to DNA at higher peptide concentrations”.

With ADSQHSAPPKKKR [T124A13] the “Effect on T-ag oligomerization, mutant set (FIG. 11 Panel B)” value (shortened to “Effect … (FIG. 11 Panel B)”) [1, 7] was “does not destroy the inhibitory property of the peptide”, the “Binding to DNA in filter binding assay, mutant set” value (“Binding to DNA … mutant set” for short) [2] was “bind to DNA as well as does wild type peptide T-213” and the “Peptide/DNA complex formation in peptide band shift” value [3, 8] was “does not affect DNA binding”. For the same substance, the “Peptide/DNA complex formation in peptide band shift” value ([3]; 13-mer set at 1 mM final concentration (20 nmoles), listed as peptide T124A13) was “bound to DNA and formed a complex; also recorded: Mobility shifts are seen” and the “Peptide/DNA complex formation in peptide band shift” value [4] was “does not require a large degree of sequence specificity; also recorded: requires little demonstrable nucleotide sequence specificity; also recorded: Mobility shifts are seen”.

For “PPKKKRTADSQHS [peptide 413, rearranged control 13-mer]”, the “Effect on T-ag oligomerization (hexamer and double hexamer formation)” value (from here on “Effect … (hexamer and double hexamer formation)”) [1, 9] was “little or no effect on T-ag oligomerization”, the “Binding to DNA in filter binding assay” value [2, 6] was “Low levels of binding” and the “Binding to DNA in filter binding assay” value ([2]; high peptide concentrations (1 mM and 2 mM), listed as peptide T-413) was “low levels of binding”. The “Peptide/DNA complex formation in peptide band shift” value [3, 8] was “did not”.

With ADSQHSpTPPKKKR [peptide 113] the “Effect … (hexamer and double hexamer formation)” value [1] was “little or no effect on T-ag oligomerization”, the “Effect … (FIG. 11 Panel B)” value [1] was “did not; also recorded: no inhibition of oligomerization of T-ag” and the “Binding to DNA in filter binding assay” value [2, 10] was “did not bind DNA at significant levels”. The “Binding to DNA in filter binding assay” value ([2]; peptide 0.5 mM to 2 mM, replication conditions, pBR322 competitor, listed as peptide T-113) was “did not bind to the oligonucleotide at significant levels” and the “Effect on ATPase of T-ag” value (T-ag helicase ATPase) was “did not modulate the ATPase of T-ag activity”.

In the case of SQHSTPPKK [peptide 29], the “Peptide/DNA complex formation in peptide band shift” value ([3]; peptide 2 mM) is reported as “binding was not detected”.

With “SEASETPVKRRKGKRKVLGSSQNSS [control BP-E125]” the “Effect on T-ag assembly, E1 Cdk/NLS peptides” value ([1]; 5 nmol peptide, final concentration 0.25 mM, T-ag 6 pmol) was “found not to block T-ag assembly”, the “Binding to DNA in filter binding assay, E1 peptides” value [2] was “bound to DNA at much reduced levels” and the “Inhibition of SV40 in vitro DNA replication” value (shortened to “Inhibition of SV40”) [5] was “not an efficient inhibitor of replication”.

With ADSQHSTAPKKKR [P125A13] the “Effect … (FIG. 11 Panel B)” value [1, 7] was “Full inhibition of oligomerization” and the “Binding to DNA … mutant set” value [2] was “bind to DNA as well as does wild type peptide T-213”.

“KKRRKRVKLVGPSTSEQSNASESSG [SEQ ID NO: 30]” was tested, and the “Inhibition of SV40” value [5] was “retains ability to inhibit replication of DNA” and the “Inhibition of SV40” value ([5]; listed as SEQ ID NO:30) was “good inhibitor of DNA replication”.

PPKKKRKVpTATADSQHS [peptide 317] was tested, and the “Effect … (hexamer and double hexamer formation)” value [1] was “no inhibition of T-ag assembly”.

In the case of ATADSQHSpTPPKKKRKV [peptide 117], the “Effect … (hexamer and double hexamer formation)” value [1] is reported as “no inhibition of T-ag assembly”, the “Binding to DNA in filter binding assay” value [2, 6] is reported as “observed to bind to DNA” and the “Binding to DNA in filter binding assay” value ([2]; high peptide concentrations (1 mM and 2 mM), listed as peptide T-117) is reported as “observed to bind to DNA at higher peptide concentrations”.

“ATADSQHSTPPKKKRKV (Virus; Host Macaca mulatta; DOMAIN (1)..(17) Domain SV40 T-Antigen (116)...(132)) [peptide 217, 17-mer of SV40 T-ag with complete NLS]” was tested, and the “Effect on T-ag oligomerization” value ([1]; T-ag 6 pmol) was “inhibited T-ag oligomerization”, the “Effect … (hexamer and double hexamer formation)” value [1, 9] was “completely blocked” and the “Binding to DNA in filter binding assay” value [2, 6] was “saturated”. The “Binding to DNA in filter binding assay” value ([2]; peptide 0.5 mM) was “significant binding was observed”, the “Binding to DNA in filter binding assay” value [2, 10] was “relatively high affinity for binding to DNA” and the “Binding to DNA in filter binding assay” value ([2]; peptide 0.5 mM to 2 mM, replication conditions, pBR322 competitor, listed as peptide T-217) was “higher affinity for this DNA than does peptide T-213”. For the same substance, the “Inhibition of SV40” value [5] was “not an efficient inhibitor of DNA replication; also recorded: unable to inhibit replication”.

For “RKVLGSSQNSSGSEASEpTPVKRRK [peptide E1-P125]”, the “Binding to DNA in filter binding assay, E1 peptides” value [2] was “binds to DNA at levels similar to the control peptide E1-425” and the “Effect on ATPase of T-ag” value (T-ag helicase ATPase) was “had no effect”.

In the case of PPKKKRpTADSQHS [peptide 313], the “Effect … (hexamer and double hexamer formation)” value [1] is reported as “little or no effect on T-ag oligomerization”.

ADSQHSTPAKKKR [P126A13] was tested, and the “Effect … (FIG. 11 Panel B)” value [1, 7] was “Full inhibition of oligomerization” and the “Binding to DNA … mutant set” value [2] was “bind to DNA as well as does wild type peptide T-213”.

— patent US20040147006A1, “Peptides that bind to DNA and inhibit DNA replication, and methods of use” (priority 2001, published 2004)
